In assay [1] the target is T1, PAR1 (Homo sapiens, UniProt P25116).
T1 construct: able to cleave PAR1 on the surface of human platelets; endogenous in cells; host or cells: gel-filtered or washed human platelets
T1 sequence (P25116 22-425): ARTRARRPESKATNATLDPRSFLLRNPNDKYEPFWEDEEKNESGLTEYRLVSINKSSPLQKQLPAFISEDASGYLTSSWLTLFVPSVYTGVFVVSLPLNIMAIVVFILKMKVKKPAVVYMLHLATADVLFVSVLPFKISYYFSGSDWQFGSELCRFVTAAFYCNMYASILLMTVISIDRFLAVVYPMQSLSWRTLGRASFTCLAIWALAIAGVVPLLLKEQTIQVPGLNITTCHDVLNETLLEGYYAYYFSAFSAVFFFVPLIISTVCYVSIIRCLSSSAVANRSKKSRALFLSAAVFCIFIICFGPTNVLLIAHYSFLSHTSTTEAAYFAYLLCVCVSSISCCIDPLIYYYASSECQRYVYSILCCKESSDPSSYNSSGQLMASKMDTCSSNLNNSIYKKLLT
Put plainly: MMP-1-induced PAR1-dependent calcium flux in platelets. It counts as cell-based. To be noted: RWJ-56110. As to the method:
In FIG. 4C, the induction of PAR1-dependent calcium fluxes by MMP-1 was measured. Calcium flux measurements of gel filtered platelets following challenge with MMP-1 in the presence or absence of RWJ-56110 were performed at 25° C. with emission recorded at 510 nm and dual excitation at 340 and 380 nm as described (Kuliopulos. 1999).
(In general: Calcium flux is commonly read through the fluorescence of an indicator in the cells.)

Assay [2] has as its target T1, PAR1. Put plainly: Platelet shape change (decrease in light transmittance). It counts as cell-based. The settings on record: 1 μM RWJ-56110. As to the method:
In FIG. 3C, the ability of the […] peptide (PR-TRAP) to induce a change in platelet shape was determined. Washed human platelets were pretreated with 2 mM EGTA and then treated with the indicated agonists in the presence or absence of 1 μM RWJ-56110 while stirring at 1100 rpm. The decrease in light transmittance is an indication of the platelet shape change reaction.
In FIG. 4B, the ability of MMP-1 to induce platelet shape change was determined. Washed human platelets were pretreated with 2 mM EGTA and then challenged with MMP-1 in the presence or absence of 1 μM RWJ-56110 while stirring at 1100 rpm. Shape change was measured as described above.

The test system of assay [3] is platelets. Put plainly: Collagen-dependent aggregation of gel-filtered human platelets (light transmittance). It counts as cell-based. To be noted: 5 μg/ml collagen; 1,10-PA 100 μM, MMP-200 200 nM, FN-439 3 μM, RWJ-56110 1 μM, PAR1 Ab 75 μg/ml, pepducins 3 μM, PPACK 200 μM, hirudin 1 U/ml. The method, then:
Platelet pellets and their supernatants were prepared as follows. […] following established informed consent procedures. […] Alternatively, whole blood was obtained from Hartley Sprague guinea pigs (drawn from the vena cava) into 3% citrate plus 10 U/ml heparin. Washed platelets from the guinea pigs were prepared in PIPES buffer. Platelet aggregation was measured with a Chronolog 560VS/490-2D aggregometer using modified PIPES buffer as a blank. Samples were incubated for 5 min in the presence of inhibitors and 1.8 mM CaCl2 prior to addition of agonist. All reactions were in final volumes of 250 μl at 37° C. while stirring at 900 rpm.
The effect of pharmacologic blockage of metalloproteases or PAR1 on collagen-dependent platelet aggregation was then tested (see FIG. 5). Gel-filtered platelets from healthy individuals (supplemented with 0.3 mg/ml fibrinogen) were challenged with 5 μg/ml collagen in the presence or absence (0.2% DMSO vehicle) of the indicated inhibitors and allowed to stir at 900 rpm in an aggregometer cuvette (250 μL) at 37° C.
In FIG. 5A, platelet aggregation was monitored by light transmittance.

The target of assay [4] is T1, PAR1. Put plainly: MMP-1-induced platelet aggregation. It is filed as cell-based. The settings on record: 1 μM RWJ-56110. As to the method:
In FIG. 4D, the induction of platelet aggregation by MMP-1 was determined. Gel-filtered platelets were challenged with MMP-1 in the presence or absence (0.2% DMSO vehicle) of the PAR1 inhibitor 1 μM RWJ-56110.

Assay [5] concerns platelets. Put plainly: Platelet thrombus formation on collagen surface under arterial flow, heparin-anticoagulated whole blood. It counts as cell-based, human. The settings on record: heparin 10 U/mL; shear rate 1,000 s-1; FN-439 3 μM, RWJ-56110 1 μM, pepducins 3 μM, aspirin 1 mM. The method, then:
Following incubation with inhibitors, the blood was perfused over a glass slide coated with fibrillar collagen type I.
A flow chamber (Glycotech) with Type-I fibrillar collagen-coated glass slides was mounted on the stage of an IMT-2 inverted microscope (Olympus) equipped with Retiga 1300 digital camera (QImaging) and 40× objective. One of the flow chamber inlets was connected to a syringe pump (Harvard Apparatus) calibrated to create a shear rate of 1,000^s-1. The whole blood pretreated with the various pharmacologic inhibitors was then perfused over the collagen-coated glass slide. After 2-15 min of perfusion, blood was removed from the flow chamber by gentle displacement with PIPES buffer and images of 8-10 fields were acquired using OpenLab software (Improvision). Acquired images were further analyzed using NIH Image 1.63 software. Images were first sharpened and the edges of separate platelets and platelet aggregates were determined. Following the adjustment of threshold, images were converted into the binary format, and the particle analysis function was activated to highlight the regions covered by platelets with the sensitivity set to one single adherent thrombocyte. For the conversion of pixels into square micrometers, a calibration curve was built using 2.5, 6, 20, 25, and 45 μm polystyrene beads (Polyscience) using acquisition conditions identical to the experimental. The mean area of formed thrombus was determined at 7 min. Area measurements in FIG. 6B represent the mean±s.e. of three separate experiments from five different blood donors.

The subject of assay [6] is MAPKAP-K2. Put plainly: Collagen activation of phospho-MAPKAP-K2 in platelets (data not shown). It is filed as cell-based, human.
Assay [7] deals with platelets. Put plainly: Clot retraction assay in human platelet-rich plasma, collagen initiated. The settings on record: 2.5-5 μg/ml collagen (titration 1-20 μg/ml); FN-439 5 μM, RWJ-56110 1 μM, MMP9/13 Inh 10 nM; 90 or 240 min. It is filed as cell-based. As to the method: Platelet rich plasma (PRP) was isolated from human whole blood anti-coagulated with 4% sodium citrate. Clot retraction assays were done in 1 ml volumes containing 800 μl PBS and 200 μl PRP plus 10 μl red blood cells to enhance contrast. Samples were pretreated with FN-439 (5 μM), MMP9/13 Inh (10 nM) or RWJ-56110 (1 μM) for 15 min and clot formation was initiated with 1-20 μg/ml type I fibrillar collagen. Samples were incubated at 37° C. for 90 or 240 min and then photographed with a digital camera. Each photograph in FIG. 6I is representative of three independent experiments.

Assay [8] is described as follows: Carotid artery FeCl3 injury arterial thrombosis model. It counts as in vivo, guinea pig. To be noted: RWJ-56110 0.5 mg/kg; P1pal-7 0.13 mg/kg i.v. The text has this:
To assess the efficacy on arterial thrombosis by blockade of thrombin, MMP-1, or PAR1, a standard carotid artery FeCl3 injury model was used in guinea pigs. FeCl3 causes denudation of the artery and exposure of type I collagen and other subendothelial matrix proteins. The effects of blocking thrombin with bivalirudin, MMP-1 with FN-439, and PAR1 with either the small molecule antagonist RWJ-56110 or the P1pal-7 pepducin on arterial thrombosis were then compared using a dopier probe.
For these arterial thrombosis experiments, 10 min after i.v. administration of vehicle (−), bivalirudin, RWJ-56110, P1 pal-7 or FN-439 (n=4-5) through the jugular vein at the indicated concentrations, the right carotid arteries were injured for 20 min using a 24 mm^2 piece of Bio-Rad Trans-Blot paper soaked in 20% FeCl3. Arterial flow 5 mm distal to the site of injury was measured with a 0.5 V Doppler probe (Transonic Systems). An arterial occlusion was defined as a flow rate of <0.01 V for ≧5 min. Doppler measurements were terminated at the 30 min time point following injury (* designates p<0.05).

Assay [9] addresses T1, PAR1. Put plainly: PAR1-dependent RhoA activation (Rho-GTP) in platelets by tethered-ligand peptides. It counts as cell-based. The settings on record: 1 μM RWJ-56110. As to the method:
Gel-filtered human platelets, supplemented with 0.3 mg/mL fibrinogen, were treated with 0.2% DMSO vehicle, or 30 μM SFLLRN (TRAP), PR-TRAP or reversed peptide (RP-TRAP), for 5 min at 37° C. in presence or absence of 1 μM RWJ-56110 as indicated. Platelets were lysed and Rho-GTP and total Rho was determined by Western analysis as described in the Experimental Procedures. Western bands were quantified by densitometry and results expressed relative to fold-increase from basal.

Turning to `NCC[C@H](NC(=O)[C@H](Cc1ccc(F)c(F)c1)NC(=O)Nc1ccc2c(CN3CCCC3)cn(Cc3c(Cl)cccc3Cl)c2c1)C(=O)NCc1ccccc1` [RWJ-56110], the “inhibition of MMP-1-elicited calcium mobilization” value in [1] is listed as “inhibited”. Besides, in [2], the “block of PR-TRAP-induced platelet shape change” value is “completely blocked” and the “inhibition of MMP-1-elicited platelet shape change” value is “inhibited”. For the same molecule, the “inhibition (loss) of collagen-induced platelet aggregation” value in [3] stood at 50%. Also, the “inhibition of MMP-1-elicited platelet aggregation” value in [4] is listed as “inhibited”. Moreover, in assay [5], the “attenuation of growth rate and size of platelet aggregate strings” value is on record as roughly 75%. For the same molecule, the “block of collagen-activation of phospho-MAPKAP-K2” value in assay [6] is “blocked”. In addition, in [7], the “inhibition of clot formation and retraction” value is reported as “nearly identical pattern of inhibition”. Also, the “effect on mean occlusion time” value in assay [8] is listed as “did not appreciably affect”. For the same molecule, in assay [9], the “block of signaling induced by PR-TRAP” value is recorded as “completely blocked”.
